Reference: patent publication US20100240686A1, “CHEMICAL COMPOUNDS” (priority 2006, published 2010)

Target: T1, CDK2/Cyclin E (Homo sapiens, UniProt P24941)
T1 construct: The open reading frames of CDK2 and Cyclin E were isolated by reverse transcriptase-PCR; made in house; host or cells: Spodoptera frugiperda SF21 insect cells (baculovirus co-infection, pVL1393)
Test: in vitro kinase assay, Scintillation Proximity Assay (incorporation of [γ-33-P]-ATP into GST-Rb)
Format: biochemical
Conditions: CDK2/Cyclin E partially-purified enzyme, GST-Rb substrate, 0.2 μM ATP, room temperature 60 minutes; read-out: CDK2 inhibitory activity IC50
Experimental: The compounds were tested in an in vitro kinase assay in 96 well format using Scintillation Proximity Assay (SPA—obtained from Amersham) for measuring incorporation of [γ-33-P]-Adenosine Triphosphate into a test substrate (GST-Retinoblastoma protein; GST-Rb). In each well was placed the compound to be tested (diluted in DMSO and water to correct concentrations) and in control wells either roscovitine as an inhibitor control or DMSO as a […] control.
Approximately 0.2 μl of CDK2/Cyclin E partially-purified enzyme (amount dependent on enzyme activity) diluted in 25 μl incubation buffer was added to each well then 20 μl of GST-Rb/ATP/ATP33 mixture (containing 0.5 μg GST-Rb and 0.2 μM ATP and 0.14 μCi [γ-33-P]-Adenosine Triphosphate in incubation buffer), and the resulting mixture shaken gently, then incubated at room temperature for 60 minutes. […]
The plates were sealed with Topseal-S plate sealers, left for two hours then spun at 2500 rpm, 1124×g., for 5 minutes. The plates were read on a Topcount for 30 seconds per well. […]
The open reading frames of CDK2 and Cyclin E were isolated by reverse transcriptase-PCR using HeLa cell and activated T cell mRNA as a template and cloned into the insect expression vector pVL1393 (obtained from Invitrogen 1995 catalogue number: V1392-20). […]

- IC50: 3 nM
SMILES: Cc1ncc(-c2ccnc(Nc3ccc(C(=O)NCCN(C)C)c(F)c3)n2)n1C(C)C [Example 2, N-(2-Dimethylaminoethyl)-2-fluoro-4-[[4-(2-methyl-3-propan-2-yl-imidazol-4-yl)pyrimidin-2-yl]amino]benzamide]
